These results are taken from patent US11434222B2, “MAGL inhibitors” (H. LUNDBECK A/S, priority 2020, dated 2022).

SMILES strings stand for the structures. Where two headings read alike, the source gives them in different places.

Data set [1] in a line: In vitro rat blood to plasma ratio. The format is in vitro ADME. The conditions noted are these: 1 μM test compound. The protocol:
(§1) Brain disposition was evaluated in male Sprague-Dawley rats (n=3, standard body weight). Briefly, test compound was formulated as a simple suspension, in 0.5% HPMC in water, then administered by oral gavage (5 mg/kg, 5 mL/kg). Four hours post dosing, rats were sacrificed, and terminal blood and brain samples were taken. Blood was obtained via cardiac puncture (0.1 mL) and was added into 0.4 mL CH3CN for precipitation immediately. The samples were stored at −75+/−15° C. prior to analysis. Brain tissue samples were collected after animals were fully exsanguinated, and the tissues were washed with cold saline quickly. After sectioning, brain sections were immediately frozen in liquid nitrogen and stored at −75+/−15° C. prior to analysis. Blood and brain samples were analyzed by LC/MS/MS using an optimized analytical method. Concentrations of test compound in blood and brain were quantified against matrix matched calibration standards. The total blood, plasma, and brain concentration data are presented in Table 2 alongside the calculated brain Kp (total brain concentration:total plasma concentration ratio), the calculated brain kp,uu (unbound brain concentration:unbound plasma concentration ratio), the free fractions in rat plasma and brain, and the in vitro rat blood to plasma distribution profile. The total plasma concentration data were calculated from the total blood concentration data using rat blood to plasma ratio which was measured in vitro (1 μM test compound). For kp,uu determination, the free fraction in rat plasma and brain homogenate were measured in vitro by standard equilibrium dialysis (1 μM test compound and 6 h equilibration against buffer pH 7.4; for rat plasma analysis, 100 mM stock solution of diisopropyl fluorophosphate was added to the pre-warmed rat plasma prior to adding test article).

Data set [2] in a line: In vitro human hepatocyte stability. The format is in vitro ADME. The following applies: cryopreserved human hepatocytes (pooled donor), human hepatocytes 0.5×10^6 cells/mL, read-out: Scaled-up unbound CLint. The protocol:
The metabolic stability of test articles (1 μM) in commercially sourced, pooled donor, cryopreserved human hepatocytes (0.5×10^6 cells/mL) was determined in duplicate. The CLint reactions (250 μL) were initiated by addition of test compound. Aliquots (25 μL) were taken at 0, 15, 30, 45, 60, 90, 120 and 240 minutes and then protein crashed with ice-cold acetonitrile containing internal standard then centrifuged (3220 g for 25 minutes). Supernatant was used for LC-MS/MS analysis. The in vitro half-life (in vitro t1/2) was determined from the slope value: in vitro t1/2=−0.693/k. Conversion of the in vitro t1/2 (in min) into the scale-up unbound intrinsic clearance (Scaled-up unbound CLint, in mL/min/kg) was done using the following equation (mean of duplicate determinations), with data shown in Table 5: Scaled-up unbound CLint=kV/N×scaling factor. V=incubation volume (0.25 mL); N=number of hepatocytes per well ([…]). Scaling factors for in vivo intrinsic clearance prediction are listed below: […]

In another data set the target is T1, MAGL (Mus musculus, UniProt O35678).
T1 construct: brain proteomes were prepared and analyzed according to previously established methods; from tissue; host or cells: brain of wild-type C57Bl/6J mice
T1 sequence (O35678 1-303): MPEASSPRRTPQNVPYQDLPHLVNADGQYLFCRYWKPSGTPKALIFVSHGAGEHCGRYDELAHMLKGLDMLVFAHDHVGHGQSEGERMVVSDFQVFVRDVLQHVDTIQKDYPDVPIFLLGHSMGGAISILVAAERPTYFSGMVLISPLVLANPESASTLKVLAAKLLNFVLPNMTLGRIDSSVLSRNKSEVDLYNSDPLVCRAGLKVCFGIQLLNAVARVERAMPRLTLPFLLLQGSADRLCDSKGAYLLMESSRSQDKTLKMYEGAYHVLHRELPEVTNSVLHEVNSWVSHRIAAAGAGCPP
The experiment in a line: In vivo MAGL inhibition in mouse brain proteomes after oral gavage. The conditions noted are these: 5 mg/kg oral gavage, 4 h after administration, read-out: MAGL % inh. 5 mg/kg (mouse). As for the experimental part: Inhibitors were administered to wild-type C57B1/6J by oral gavage in a vehicle of polyethylene glycol. Each animal was sacrificed 4 h following administration and brain proteomes were prepared and analyzed according to previously established methods (See Niphakis, M. J., et al. (2011) ACS Chem. Neurosci. and Long, J. Z., et al. Nat. Chem. Biol. 5:37-44).

A short description of data set [3]: Thermodynamic solubility in PBS. Format: physicochemical. The following applies: aqueous buffer, thermodynamic from solid; PBS pH 7.4; 24 hours at RT. The protocol: The thermodynamic solubility of test article was determined in PBS at pH 7.4 in duplicate. The test article (1.5 mg) in PBS was incubated for 24 hours at RT with shaking at 1100 rpm. Sample was then filtered using a vacuum manifold, diluted, and analyzed by LC-MS/MS. Chromatographic conditions: Phenomenex Synergi 4μ Hydro-PR 80A column (2.0×30 mm) coupled with pre-guard column; mobile phase=0.1% formic acid in acetonitrile and 0.1% formic acid in water; flowrate=0.65 mL/min; column temperature=40 degrees C.; injection volume: 10 μL.
Mobile phase: 0.1% formic acid in acetonitrile (A) and 0.1% formic acid in water (B)
Mass conditions: Turbo spray ion source; ESI ionization model; MRM scan type; Collison gas=6 L/min; Curtain gas=30 L/min; Nebulize gas=50 L/min; Auxiliary gas=50 L/min; Temperature=500 degrees C.; Ion spray voltage=+5500 v (positive MRM).
The filtered solution was analyzed and quantified against a standard of known concentration in DMSO using UPLC coupled with mass spectral peak identification and quantitation. Solubility values of the test articles were calculated using Microsoft Excel as follows (DF is the dilution factor): […]

A short description of data set [4]: Kinetic solubility in PBS. The format is physicochemical. The conditions noted are these: aqueous buffer, kinetic from dmso stock. A digest of the protocol: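 Solubility measured in PBS at pH 2.0 and pH 7.4, in duplicate, starting from 10 mM DMSO stock; shaken 2 h at RT at 1,100 RPM. Filtrate diluted and quantified by LC-MS/MS (positive MRM) against a DMSO standard of known concentration.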

The nature of data set [5]: Rat Kp, brain disposition after oral gavage. Format: in vivo. The protocol: as §1
Data set [6] in a line: Free fraction in rat plasma and brain homogenate by equilibrium dialysis. Format: in vitro ADME. As for the experimental part:
as §1
Background: In equilibrium dialysis free small molecules cross a membrane that holds back macromolecules.

Setting [7] is: 5 mg/kg oral gavage, 4 h post dosing, mean n = 3.

`O=C(Nc1cccnc1)[C@H]1CC12CCN(C(=O)OC(C(F)(F)F)C(F)(F)F)CC2` (single isomer, unassigned) [Example 2]: the blood plasma ratio at 1 μM in data set [1] came to 0.833. The CLint scaled at 1 μM in data set [2] came out at 34.8 mL/min/kg. The inhibition at 5 mg/kg at MAGL is 100%. Further, in data set [3], the thermodynamic solubility at 24 h was found to be 91.8 µg/mL. Besides, the solubility (kinetic) at 2 h in data set [4] (PBS pH 2.0, RT, read-out: pH 2 Solubility (kinetic)) amounted to 30.3 µM; in data set [4] (PBS pH 7.4, RT, read-out: pH 7.4 Solubility (kinetic)) it was 189 µM. Also, the Total plasma concentration in data set [5] (5 mg/kg oral gavage, 4 h, calculated from total blood concentration using blood to plasma ratio) was 0.066 µM. Also, the Total blood concentration in data set [5] (setting [7]) was 0.049 µM. This compound also registered a Total brain concentration in data set [5] (setting [7]) of 0.199 µM. For the same compound, the Kp at 4 h in data set [5] (male, Sprague-Dawley, po, total brain concentration:total plasma concentration ratio, 5 mg/kg p.o., 4 h) amounted to 3.01. Besides, the Kp uu at 4 h in data set [5] (male, Sprague-Dawley, po, unbound brain concentration:unbound plasma concentration ratio, 5 mg/kg p.o., 4 h) is 0.925. The fraction unbound at 6 h, 1 μM was found to be 0.024 in data set [6] (rat brain homogenate, buffer pH 7.4, read-out: Rat brain free fraction) and 0.078 in data set [6] (rat plasma, buffer pH 7.4, read-out: Rat plasma free fraction).

The term CLint scaled denotes the rate of metabolic loss divided by the concentration. As usually defined, the thermodynamic solubility is solubility found after equilibrating the solid with the medium. As usually defined, the solubility (kinetic) is solubility judged after dilution from a stock solution rather than from solid. A word on the Kp: it is the ratio of the level in a tissue or fluid to that in plasma or blood.
